Experimental data: US20020006661A1, “Controlling gene expression in living cells” (University of Massachusetts, a Massachusetts corporation, priority 1998, published 2002)

Columns and labels:
[1] = tested on: E. coli BL-21 cells expressing RSETA, kan or tob aptamers; test: Growth of E. coli expressing antibiotic aptamers in antibiotic-containing medium; assay type: cell-based; conditions: 10 mM antibiotic, liquid culture; for Growth of bl-kan1 (kanamycin aptamer) in the presence of antibiotic: strain bl-kan1; for Growth of bl-tob1 (tobramycin aptamer) in the presence of antibiotic: strain bl-tob1
Experimental: FIGS. 3A-3E are growth curves of E. coli expressing antibiotic aptamers. Overnight cultures of BL-21 cells transformed with plasmids expressing RSETA, tob1, tob3, kan1 or kan3 were diluted 100-fold into medium containing the indicated concentration of aminoglycoside antibiotic. Optical density (660 nm) was measured at fixed intervals over 8 hours of growth at 37° C.
As an initial test for the ability of these aptamers to function in vivo, we asked whether following expression in E. coli the aptamer would sequester the cognate antibiotic thereby conferring a specific drug-resistant phenotype. Toward this end, one or three copies of the kanamycin A (kan) or the tobramycin (tob) aptamer were cloned into the T7 RNA polymerase-driven expression vector PRSETA (Invitrogen), and transformed into a bacterial strain containing an IPTG-inducible T7 RNA polymerase. Bacterial strains were grown in liquid culture overnight and then diluted into antibiotic-containing medium. In the absence of drug, bacterial strains expressing no aptamer (bl-RSETA), the kanamycin aptamer (bl-kan1), or the tobramycin aptamer (bl-tob1) grew similarly (FIG. 3A). […] The partial-resistance of bl-kan1 to tobramycin (our unpublished data).

[2] = tested on: tob3-RSETA mRNA (three copies of the tob aptamer in the 5′ UTR); test: Wheat germ in vitro translation of tob3-RSETA mRNA; assay type: biochemical; conditions: 0, 30 or 60 μM drug, wheat germ extract
Experimental: (§1) FIG. 4. is a histogram showing percent translation of mRNA in a wheat germ in vitro translation system containing 0 (RSETA) or 3 copies of the tob aptamer cloned into the 5′ UTR of RSETA (tob3-RSETA) and 0, 30 or 60 μM tobramycin or kanamycin A. Protein products were analyzed by SDS-PAGE and quantitated by densitometry. For each transcript, translation in the absence of drug was set at 100%.
A test mRNA was constructed containing three copies of the tob aptamer inserted in the 5′ UTR of RSETA (tob3-RSETA). In vitro translation reactions were performed in the presence of 0, 30 or 60 μM tobramycin or kanamycin A.
In vitro transcription reactions contained 5 μg pRSETA (or RSET derivative), 0.5 mM m^7G(5′)G, 0.5 mM ATP, CTP, UTP, 0.05 mM GTP, 10 mM DTT and 40 U T7 RNA polymerase in 50 μl of a solution of 40 mM Tris-HCl pH 7.5, 6 mM MgCl2, 2 mM spermidine, 10 mM NaCl. Following incubation for 1 hour at 37° C., RNA was purified by phenol:chloroform extraction, ethanol precipitation and resuspended in 30 μl H2O. Translation reactions were carried out in 10 μl containing 5 μl wheat germ extract, 0.8 μl 1 mM amino acid mixture (minus methionine), 2 μl of RNA transcript (described above), 0.5 μl [^35S] methionine (1200 Ci/mmole) and 0-80 μM drug. […] Translation products were separated by electrophoresis on an 18% polyacrylamide gel, visualized by autoradiography, and quantitated by densitometry.

control RSETA mRNA = test: Wheat germ in vitro translation of control RSETA mRNA; assay type: biochemical; conditions: all concentrations tested, wheat germ extract
Experimental: as §1
(§2) FIG. 10. is a histogram summarizing SDS-PAGE densitometry data from in vitro translation experiments. RNA transcripts containing 0 (RSETA) or 2 copies of an H33258 aptamer (H2-RSETA) were translated in a wheat germ extract in the presence of ^35S-methionine and 0, 40 or 80 μM H33258. Protein products were subjected to SDS-PAGE and quantitated by densitometry. For each transcript, translation in the absence of drug was set at 100%.
A test mRNA was constructed containing three copies of the tob aptamer inserted in the 5′ UTR of RSETA (tob3-RSETA). […]
In vitro transcription reactions contained 5 μg pRSETA (or RSET derivative), 0.5 mM m^7G(5′)G, 0.5 mM ATP, CTP, UTP, 0.05 mM GTP, 10 mM DTT and 40 U T7 RNA polymerase in 50 μl of a solution of 40 mM Tris-HCl pH 7.5, 6 mM MgCl2, 2 mM spermidine, 10 mM NaCl. […] Translation products were separated by electrophoresis on an 18% polyacrylamide gel, visualized by autoradiography, and quantitated by densitometry.

[3] = tested on: SVH2β Gal (β-galactosidase reporter with H10 and H19 in the 5′ UTR) in CHO cells; test: β-galactosidase reporter expression in transfected CHO cells, SVH2β gal; assay type: cell-based; conditions: 24 hours, 0, 5 or 10 μM H33342, dose-dependent
Experimental: (§3) FIG. 11 is a histogram summarizing data from in vivo expression experiments. H33258 aptamers H10 and H19 were cloned in tandem into the 5′ UTR of a β-galactosidase reporter gene (SVβ gal; Promega) to generate SVH2β gal. CHO cells were cotransfected with 1 μg SVβ gal or SVH2β gal and 1 μg of a luciferase expression vector (pGL3). Transfected cells were grown in the presence of […]. Twenty-four hours after transfection, cell extracts were prepared, and β-galactosidase and luciferase activities were determined.
(§4) To test whether this small molecule-aptamer interaction could be used to control gene expression in vivo, one copy of H10 and H19 were inserted into the 5′ UTR of a mammalian β-galactosidase expression plasmid SVβ Gal (Promega), generating the construct SVH2β gal. CHO cells were cotransfected with SVH2β Gal or as a control the parental vector, SVβ Gal, and a luciferase reporter gene to provide an internal control. Following transfection, cells were grown for 24 hours in the presence of 0, 5 or 10 μM H33342 and analyzed for β-galactosidase and luciferase activities.
(§5) H33258 aptamers, H10 and H19, were cloned in tandem into the 5′ UTR of a β-galactosidase reporter gene (SVβ gal, Promega) to generate SVH2β gal. […] 24 hours post-transfection cell extracts were prepared and β-galactosidase and luciferase activities were determined.

[4] = tested on: parental expression vector SVβ Gal in CHO cells; test: β-galactosidase reporter expression in transfected CHO cells, parental SVβ Gal; assay type: cell-based; conditions: 24 hours, 0, 5 or 10 μM H33342, data not shown
Experimental: as §3, §4, §5

[5] = tested on: luciferase reporter (pGL3) in CHO cells; test: Luciferase internal control reporter in transfected CHO cells; assay type: cell-based; conditions: 24 hours, 0, 5 or 10 μM H33342
Experimental: as §3, §4, §5

[6] = cited from earlier work; for Cell permeability: known
[7] = known; cited from earlier work
[8] = tested on: H2-RSETA mRNA (H10 and H19 in tandem in the 5′ UTR); test: Wheat germ in vitro translation of H2-RSETA mRNA; assay type: biochemical; conditions: 0, 40 or 80 μM H33258, wheat germ extract
Experimental: as §2
In vitro transcription reactions contained 5 μg pRSETA (or RSET derivative), 0.5 mM m^7G(5′)G, 0.5 mM ATP, CTP, UTP, 0.05 mM GTP, 10 mM DTT and 40 U T7 RNA polymerase in 50 μl of a solution of 40 mM Tris-HCl pH 7.5, 6 mM MgCl2, 2 mM spermidine, 10 mM NaCl. Following incubation for 1 hour at 37° C., RNA was purified by phenol:chloroform extraction, ethanol precipitation and resuspended in 30 μl H2O. Translation reactions were carried out in 10 μl containing 5 μl wheat germ extract, 0.8 μl 1 mM amino acid mixture (minus methionine), 2 μl of RNA transcript (described above), 0.5 μl [^35S] methionine (1200 Ci/mmole) and 0-80 μM drug. Reactions were incubated at 25{square root} C. for 15 minutes and terminated by addition of 2X sample loading buffer. Translation products were separated by electrophoresis on an 18% polyacrylamide gel, visualized by autoradiography, and quantitated by densitometry.

Compound	Growth of bl-kan1 (kanamycin aptamer) in the presence of antibiotic [1]	Growth of bl-tob1 (tobramycin aptamer) in the presence of antibiotic [1]	In vitro translation of tob3-RSETA mRNA [2]	In vitro translation of control RSETA mRNA (control RSETA mRNA)	Growth of bl-RSETA (no aptamer) in the presence of antibiotic ([1]; strain bl-RSETA)	Reduction of β-galactosidase activity from SVH2β Gal [3]	Expression of parental expression vector SVβ Gal [4]	Expression of the luciferase reporter [5]	Cell permeability relative to H33258 [6]	Cell permeability [6]	Toxicity [7]	In vitro translation of H2-RSETA mRNA [8]
NC[C@H]1O[C@H](O[C@H]2[C@H](O)[C@@H](O[C@H]3O[C@H](CO)[C@@H](O)[C@H](N)[C@H]3O)[C@H](N)C[C@@H]2N)[C@H](N)C[C@@H]1O [tobramycin]	grew to a sub-saturating level	grew to saturation	inhibited in vitro translation of the tob3-RSETA mRNA in a dose-dependent fashion	unaffected	–	–	–	–	–	–	–	–
NC[C@H]1O[C@H](O[C@H]2[C@H](O)[C@@H](O[C@H]3O[C@H](CO)[C@@H](O)[C@H](N)[C@H]3O)[C@H](N)C[C@@H]2N)[C@H](O)[C@@H](O)[C@@H]1O [kanamycin A]	grew to saturation	neglible	not inhibited	unaffected	neglible	–	–	–	–	–	–	–
CCOc1ccc(-c2nc3ccc(-c4nc5ccc(N6CCN(C)CC6)cc5[nH]4)cc3[nH]2)cc1 [H33342]	–	–	–	–	–	greater than 90%	not inhibited	not inhibited	approximately ten-fold more cell-permeable	cell-permeable	relatively non-toxic	–
CN1CCN(c2ccc3[nH]c(-c4ccc5[nH]c(-c6ccc(O)cc6)nc5c4)nc3c2)CC1 [H33258]	–	–	–	–	–	–	–	–	–	cell-permeable	relatively non-toxic	inhibited in vitro translation of H2-RSETA
